Data: PubChem BioAssay (NCI)
Several values for one entry are separate records, joined by “and”; a condition that tells them apart may be missing. Equal entries are not always repeated.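 Growth conditions: 96-well plates. Treatment: test compound, 48 hours, 5 concentrations. Analysis: linear interpolation between bracketing concentrations; unreached endpoints set to highest concentration. GI50: concentration for 50% inhibition of growth. TGI is the concentration that stops growth completely.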

Experiments:
Test in all cases: growth of human tumour cells (NCI), 48 h
CAKI-1 renal = system: CAKI-1 renal
HCT-116 colon = system: HCT-116 colon
NCI/ADR-RES ovarian = system: NCI/ADR-RES ovarian
OVCAR-4 ovarian = system: OVCAR-4 ovarian
UACC-62 melanoma = system: UACC-62 melanoma
TK-10 renal = system: TK-10 renal
SK-MEL-2 melanoma = system: SK-MEL-2 melanoma
BT-549 breast = system: BT-549 breast
SR leukemia = system: SR leukemia
PC-3 prostate = system: PC-3 prostate

| SMILES | GI50 (CAKI-1 renal) | TGI (CAKI-1 renal) | GI50 (HCT-116 colon) | TGI (HCT-116 colon) | GI50 (NCI/ADR-RES ovarian) | TGI (NCI/ADR-RES ovarian) | GI50 (OVCAR-4 ovarian) | TGI (OVCAR-4 ovarian) | GI50 (UACC-62 melanoma) | TGI (UACC-62 melanoma) | GI50 (TK-10 renal) | TGI (TK-10 renal) | GI50 (SK-MEL-2 melanoma) | TGI (SK-MEL-2 melanoma) | GI50 (BT-549 breast) | TGI (BT-549 breast) | GI50 (SR leukemia) | TGI (SR leukemia) | GI50 (PC-3 prostate) | TGI (PC-3 prostate) |
| --- | --- | --- | --- | --- | --- | --- | --- | --- | --- | --- | --- | --- | --- | --- | --- | --- | --- | --- | --- | --- |
| NC(=O)c1ccc2nc(-c3ccc(Oc4ccc(Cl)cc4)cc3)[nH]c2c1 | 6.4 µM and 16.5 µM | 39.6 µM and 49.8 µM | 8.14 µM and 12.3 µM | 75 µM and 33.4 µM | > 75 µM and 13.3 µM | > 75 µM and 32.9 µM | 41.7 µM and 11.4 µM | 75 µM and 31.1 µM | 75 µM and 16.4 µM | 75 µM and 30.7 µM | 8.61 µM and 16.4 µM | 75 µM and 39.9 µM | 18.3 µM and 21.2 µM | 75 µM and 40.2 µM | 18 µM and 12.9 µM | 67.1 µM and 28.2 µM | 17.9 µM and 20.6 µM | 61.5 µM and 57.3 µM | 55.3 µM and 11.2 µM | 75 µM and 25.5 µM |
| Cc1cccc2c(=O)c3c(sc12)c(NCCNCCO)nc1ccccc13 | 1.25 µM | 2.56 µM | 1.35 µM | 2.72 µM | – | – | 1.75 µM | 3.48 µM | 1.63 µM | 3.07 µM | – | – | 1.78 µM | 3.44 µM | 1.58 µM | 3.35 µM | – | – | 1.3 µM | 2.73 µM |
| CSc1ccc(NC(=S)NN(C)C)cc1 | – | > 10 µM | – | > 10 µM | – | > 10 µM | – | > 10 µM | – | > 10 µM | – | > 10 µM | – | > 10 µM | – | – | – | > 10 µM | – | > 10 µM |
| Nc1nc(-c2ccccc2)nc(N)c1N=O | 4.5 µM | 36.3 µM | 4.12 µM | 17.8 µM | 6.44 µM | 59.6 µM | 7.39 µM | 79.4 µM | 3.6 µM | 14 µM | 4.68 µM | 14.8 µM | 19.5 µM | 41.6 µM | 6.44 µM | 19.1 µM | 3.63 µM | 54.9 µM | 18.6 µM | 66.3 µM |
| CC(=O)OCC1OC(SC2OC(COC(C)=O)C(OC(C)=O)C(OC(C)=O)C2OC(C)=O)C(OC(C)=O)C(OC(C)=O)C1OC(C)=O (stereo not drawn) | – | > 100 µM | – | > 100 µM | – | > 100 µM | – | > 100 µM | – | > 100 µM | – | > 100 µM | – | – | – | > 100 µM | – | > 100 µM | – | – |
| CCn1cc(C(=O)O)c(=O)c2cc3c(cc21)S(=O)(=O)CC3 | – | > 100 µM | – | > 100 µM | – | > 100 µM | – | > 100 µM | – | > 100 µM | – | > 100 µM | – | > 100 µM | – | > 100 µM | – | – | – | > 100 µM |
| COc1cc2c3c(n(CCCI)c(=O)c2cc1OC)-c1cc2c(cc1C3=O)OCO2 | 0.454 µM | > 100 µM | 2.6 µM | > 100 µM | 27.3 µM | > 100 µM | 17.2 µM | > 100 µM | 0.202 µM | 1.91 µM | 14.7 µM | 57 µM | > 100 µM | > 100 µM | 1.82 µM | 9.44 µM | – | – | > 100 µM | > 100 µM |
| O=C(O)c1cnc2[nH]ccn2c1=O | – | – | – | > 100 µM | – | > 100 µM | – | > 100 µM | – | > 100 µM | – | > 100 µM | – | – | – | > 100 µM | – | > 100 µM | – | > 100 µM |
| COC(=O)CCC(=O)CC(=O)C(=O)Nc1c(Cl)cc([N+](=O)[O-])cc1Cl | – | > 100 µM | – | > 100 µM | – | – | – | > 100 µM | – | > 100 µM | – | > 100 µM | – | > 100 µM | – | – | – | 61.7 µM | – | – |
